According to EP2805715A1, “Inhibitors of RNR2 subunit of ribonucleotide reductase to impair reverse transcription of hiv related lentiviruses in macrophages and use thereof for the treatment of hiv infected patients” (INSTITUT PASTEUR, priority 2013, dated 2014):
Structures can show the parent of a compound that is named as a salt. Where two headings read alike, the source gives them in different places.

Experiments:
[1] = tested on: MDM; experiment: MDM viability; assay type: cell-based, human
[2] = tested on: HIV-1/VSV-G; assay type: cell-based

| Compound | MDM viability ([1]; at the concentrations used in the assays (data not shown)) | HIV-1 replication, fold changes of luciferase activity with respect to mock treated cells [2] | MDM viability [1] |
| --- | --- | --- | --- |
| NC(=O)NO [HU, Hydroxyurea] | not affected | Dose dependent inhibition | – |
| CC(=O)N(O)CCCCCNC(=O)CCC(=O)N(O)CCCCCNC(=O)CCC(=O)N(O)CCCCCN [DFO, Deferoxamine mesylate] | – | Dose dependent inhibition | not affected |
